Test results reported in PMC5446859 (2017).

System: DNAzyme-aptamer (DNA, aptamer) TGGGTAGGGCGGGTTGGGAAAGTTGGGCACGTGTTGTCTCTCTGTGTCTCGTGCCCTTCGCTAGGCCCAC
Experiment: peroxidase activity (TMB), blocker hybridization
Conditions: 120 mM NaCl, 5 mM KCl, 2.5 mM MgCl2; 10 mM Tris-HCl pH 8; hemin prevents hybridization of blocker; qualitative, indirect

binding: yes
Structure (SMILES): C=CC1=C(C)C2=Cc3c(C=C)c(C)c4[n]3[Fe]([Cl])[n]3c(c(C)c(CCC(=O)O)c3=CC3=NC(=C4)C(C)=C3CCC(=O)O)=CC1=N2
